# Measured values: patent US20120108585A1, “BENZOXAZOLES, BENZTHIAZOLES AND RELATED ANALOGS AS SIRTUIN MODULATORS” (Sirtris Pharmaceuticals, Inc., priority 2008, published 2012)
# Target: T1, SIRT1 (Homo sapiens, UniProt Q96EB6)
# T1 sequence (Q96EB6 1-747): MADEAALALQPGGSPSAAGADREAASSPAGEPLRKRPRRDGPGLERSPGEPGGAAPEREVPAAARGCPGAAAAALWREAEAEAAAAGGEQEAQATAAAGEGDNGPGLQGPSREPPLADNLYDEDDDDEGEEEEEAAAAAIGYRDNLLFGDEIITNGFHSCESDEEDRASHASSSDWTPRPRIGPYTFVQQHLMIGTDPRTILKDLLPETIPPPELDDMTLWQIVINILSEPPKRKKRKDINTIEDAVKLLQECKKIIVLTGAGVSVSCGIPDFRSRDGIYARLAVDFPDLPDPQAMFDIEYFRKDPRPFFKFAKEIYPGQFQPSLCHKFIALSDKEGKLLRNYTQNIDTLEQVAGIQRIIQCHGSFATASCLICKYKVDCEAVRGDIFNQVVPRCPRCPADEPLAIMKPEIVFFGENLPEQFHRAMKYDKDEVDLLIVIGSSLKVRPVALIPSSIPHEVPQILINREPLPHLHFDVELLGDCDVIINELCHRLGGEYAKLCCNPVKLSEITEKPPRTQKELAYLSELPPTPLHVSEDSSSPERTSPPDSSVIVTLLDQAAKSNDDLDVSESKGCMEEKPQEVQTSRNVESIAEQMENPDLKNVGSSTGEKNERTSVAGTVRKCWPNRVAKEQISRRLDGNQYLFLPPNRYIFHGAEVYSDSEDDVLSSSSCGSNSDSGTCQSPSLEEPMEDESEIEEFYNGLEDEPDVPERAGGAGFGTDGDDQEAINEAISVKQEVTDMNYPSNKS
# Assay: mass spectrometry based assay to identify modulators of SIRT1 activity (deacetylation of p53-based acetylated peptide)
# Assay type: biochemical
# Conditions: 25 min; SIRT1 activation; 10 nM SIRT1, 0.5 μM peptide substrate, 120 μM βNAD+, 25 minutes at 25° C.; read-out: % Fold Act. (percent maximum fold activation)
# Source text: A mass spectrometry based assay was used to identify modulators of SIRT1 activity. The mass spectrometry based assay utilizes a peptide having 20 amino acid residues as follows: Ac-EE-K(biotin)-GQSTSSHSK(Ac)NleSTEG-K(5TMR)-EE-NH2 (SEQ ID NO: 1) wherein K(Ac) is an acetylated lysine residue and Nle is a norleucine. The peptide is labeled with the fluorophore 5TMR (excitation 540 nm/emission 580 nm) at the C-terminus. The sequence of the peptide substrate is based on p53 with several modifications. In addition, the methionine residue naturally present in the sequence was replaced with the norleucine because the methionine may be susceptible to oxidation during synthesis and purification.
# The mass spectrometry assay is conducted as follows: 0.5 μM peptide substrate and 120 μM βNAD^+ is incubated with 10 nM SIRT1 for 25 minutes at 25° C. in a reaction buffer (50 mM Tris-acetate pH 8, 137 mM NaCl, 2.7 mM KCl, 1 mM MgCl2, 5 mM DTT, 0.05% BSA). Test compounds may be added to the reaction as described above. The SirT1 gene is cloned into a T7-promoter containing vector and transformed into BL21(DE3). After the 25 minute incubation with SIRT1, 10 μL of 10% formic acid is added to stop the reaction. Reactions are sealed and frozen for later mass spec analysis. Determination of the mass of the substrate peptide allows for precise determination of the degree of acetylation (i.e. starting material) as compared to deacetylated peptide (product).
# A control for inhibition of sirtuin activity is conducted by adding 1 μL of 500 mM nicotinamide as a negative control at the start of the reaction (e.g., permits determination of maximum sirtuin inhibition). A control for activation of sirtuin activity is conducted using 10 nM of sirtuin protein, with 1 μL of DMSO in place of compound, to determine the amount of deacetylation of the substrate at a given timepoint within the linear range of the assay. This timepoint is the same as that used for test compounds and, within the linear range, the endpoint represents a change in velocity.
# For the above assay, SIRT1 protein was expressed and purified as follows. The SirT1 gene was cloned into a T7-promoter containing vector and transformed into BL21(DE3). The protein was expressed by induction with 1 mM IPTG as an N-terminal His-tag fusion protein at 18° C. overnight and harvested at 30,000×g. Cells were lysed with lysozyme in lysis buffer (50 mM Tris-HCl, 2 mM Tris[2-carboxyethyl]phosphine (TCEP), 10 μM ZnCl2, 200 mM NaCl) and further treated with sonication for 10 min for complete lysis. The protein was purified over a Ni-NTA column (Amersham) and fractions containing pure protein were pooled, concentrated and run over a sizing column (Sephadex S200 26/60 global). The peak containing soluble protein was collected and run on an Ion-exchange column (MonoQ). Gradient elution (200 mM-500 mM NaCl) yielded pure protein. This protein was concentrated and dialyzed against dialysis buffer (20 mM Tris-HCl, 2 mM TCEP) overnight. The protein was aliquoted and frozen at −80° C. until further use.
# Sirtuin modulating compounds that activated SIRT1 were identified using the assay described above and are shown below in Table 1. The EC1-5 values for the activating compounds are represented by A (EC1-5<1.0 uM), B (EC1-5 1-25 uM), C (EC1-5>25 uM). The percent maximum fold activation is represented by A (Fold activation>150%) or B (Fold Activation<150%).
row,SMILES,Emax [%]
1,O=C(Nc1cccc2oc(-c3ccccc3)nc12)c1cscn1 [Compound 100],< 150
2,O=C(Nc1cccc2oc(-c3ccccc3)nc12)c1cnccn1 [Compound 101],< 150
3,O=C(Nc1cccc2oc(-c3cccc(C(F)(F)F)c3)nc12)c1cscn1 [Compound 102],< 150
4,O=C(Nc1cccc2oc(-c3cccc(C(F)(F)F)c3)nc12)c1cnccn1 [Compound 103],< 150
5,"O=C(Nc1cccc2oc(-c3cccc(OC(F)(F)F)c3)nc12)c1cscn1 [Compound 104, N-(2-(3-(trifluoromethoxy)phenyl)benzo[d]oxazol-4-yl)thiazole-4-carboxamide]",< 150
6,O=C(Nc1cccc2oc(-c3cccc(OC(F)(F)F)c3)nc12)c1cnccn1 [Compound 105],< 150
7,O=C(Nc1nccs1)c1cccc2nc(-c3cccc(C(F)(F)F)c3)oc12 [Compound 106],< 150
8,O=C(Nc1ccccn1)c1cccc2nc(-c3cccc(C(F)(F)F)c3)oc12 [Compound 107],< 150
9,O=C(Nc1cccnc1)c1cccc2nc(-c3cccc(C(F)(F)F)c3)oc12 [Compound 108],> 150
10,O=C(Nc1nccs1)c1ccnc2sc(-c3cccc(C(F)(F)F)c3)nc12 [Compound 109],< 150
11,O=C(Nc1ccccn1)c1ccnc2sc(-c3cccc(C(F)(F)F)c3)nc12 [Compound 110],< 150
12,O=C(Nc1nccs1)c1cccc2sc(-c3cccc(C(F)(F)F)c3)nc12 [Compound 111],< 150
13,O=C(Nc1ccccn1)c1cccc2sc(-c3cccc(C(F)(F)F)c3)nc12 [Compound 112],< 150
14,O=C(Nc1cccnc1)c1cccc2sc(-c3cccc(C(F)(F)F)c3)nc12 [Compound 113],< 150
15,O=C(Nc1nccs1)c1cccc2sc(-c3cccc(OC(F)(F)F)c3)nc12 [Compound 114],< 150
16,O=C(Nc1ccccn1)c1cccc2sc(-c3cccc(OC(F)(F)F)c3)nc12 [Compound 115],< 150
17,O=C(Nc1cccnc1)c1cccc2sc(-c3cccc(OC(F)(F)F)c3)nc12 [Compound 116],< 150
18,O=C(Nc1nccs1)c1cccc2nc(-c3ccccc3OC(F)(F)F)oc12 [Compound 117],< 150
19,O=C(Nc1ccccn1)c1cccc2nc(-c3ccccc3OC(F)(F)F)oc12 [Compound 118],> 150
20,O=C(Nc1nc(CN2CCOCC2)cs1)c1cccc2nc(-c3ccccc3OC(F)(F)F)oc12 [Compound 119],> 150
21,O=C(Nc1cccc(CN2CCOCC2)n1)c1cccc2nc(-c3ccccc3OC(F)(F)F)oc12 [Compound 120],> 150
22,O=C(Nc1nccs1)c1cccc2nc(-c3ccccc3C(F)(F)F)oc12 [Compound 121],> 150
23,O=C(Nc1ccccn1)c1cccc2nc(-c3ccccc3C(F)(F)F)oc12 [Compound 122],> 150
24,O=C(Nc1nc(CN2CCOCC2)cs1)c1cccc2nc(-c3ccccc3C(F)(F)F)oc12 [Compound 123],> 150
25,O=C(Nc1cccc(CN2CCOCC2)n1)c1cccc2nc(-c3ccccc3C(F)(F)F)oc12 [Compound 124],> 150

# Same assay, conditions: SIRT1 activation; 10 nM SIRT1, 0.5 μM peptide substrate, 120 μM βNAD+, 25 minutes at 25° C.
row,SMILES,EC1.5
1,O=C(Nc1cccc2oc(-c3ccccc3)nc12)c1cscn1 [Compound 100],C (EC1-5>25 uM)
2,O=C(Nc1cccc2oc(-c3ccccc3)nc12)c1cnccn1 [Compound 101],C (EC1-5>25 uM)
3,O=C(Nc1cccc2oc(-c3cccc(C(F)(F)F)c3)nc12)c1cscn1 [Compound 102],C (EC1-5>25 uM)
4,O=C(Nc1cccc2oc(-c3cccc(C(F)(F)F)c3)nc12)c1cnccn1 [Compound 103],C (EC1-5>25 uM)
5,"O=C(Nc1cccc2oc(-c3cccc(OC(F)(F)F)c3)nc12)c1cscn1 [Compound 104, N-(2-(3-(trifluoromethoxy)phenyl)benzo[d]oxazol-4-yl)thiazole-4-carboxamide]",C (EC1-5>25 uM)
6,O=C(Nc1cccc2oc(-c3cccc(OC(F)(F)F)c3)nc12)c1cnccn1 [Compound 105],C (EC1-5>25 uM)
7,O=C(Nc1nccs1)c1cccc2nc(-c3cccc(C(F)(F)F)c3)oc12 [Compound 106],C (EC1-5>25 uM)
8,O=C(Nc1ccccn1)c1cccc2nc(-c3cccc(C(F)(F)F)c3)oc12 [Compound 107],C (EC1-5>25 uM)
9,O=C(Nc1cccnc1)c1cccc2nc(-c3cccc(C(F)(F)F)c3)oc12 [Compound 108],B (EC1-5 1-25 uM)
10,O=C(Nc1nccs1)c1ccnc2sc(-c3cccc(C(F)(F)F)c3)nc12 [Compound 109],C (EC1-5>25 uM)
11,O=C(Nc1ccccn1)c1ccnc2sc(-c3cccc(C(F)(F)F)c3)nc12 [Compound 110],C (EC1-5>25 uM)
12,O=C(Nc1nccs1)c1cccc2sc(-c3cccc(C(F)(F)F)c3)nc12 [Compound 111],C (EC1-5>25 uM)
13,O=C(Nc1ccccn1)c1cccc2sc(-c3cccc(C(F)(F)F)c3)nc12 [Compound 112],C (EC1-5>25 uM)
14,O=C(Nc1cccnc1)c1cccc2sc(-c3cccc(C(F)(F)F)c3)nc12 [Compound 113],C (EC1-5>25 uM)
15,O=C(Nc1nccs1)c1cccc2sc(-c3cccc(OC(F)(F)F)c3)nc12 [Compound 114],C (EC1-5>25 uM)
16,O=C(Nc1ccccn1)c1cccc2sc(-c3cccc(OC(F)(F)F)c3)nc12 [Compound 115],C (EC1-5>25 uM)
17,O=C(Nc1cccnc1)c1cccc2sc(-c3cccc(OC(F)(F)F)c3)nc12 [Compound 116],C (EC1-5>25 uM)
18,O=C(Nc1nccs1)c1cccc2nc(-c3ccccc3OC(F)(F)F)oc12 [Compound 117],B (EC1-5 1-25 uM)
19,O=C(Nc1ccccn1)c1cccc2nc(-c3ccccc3OC(F)(F)F)oc12 [Compound 118],B (EC1-5 1-25 uM)
20,O=C(Nc1nc(CN2CCOCC2)cs1)c1cccc2nc(-c3ccccc3OC(F)(F)F)oc12 [Compound 119],B (EC1-5 1-25 uM)
21,O=C(Nc1cccc(CN2CCOCC2)n1)c1cccc2nc(-c3ccccc3OC(F)(F)F)oc12 [Compound 120],A (EC1-5<1.0 uM)
22,O=C(Nc1nccs1)c1cccc2nc(-c3ccccc3C(F)(F)F)oc12 [Compound 121],B (EC1-5 1-25 uM)
23,O=C(Nc1ccccn1)c1cccc2nc(-c3ccccc3C(F)(F)F)oc12 [Compound 122],B (EC1-5 1-25 uM)
24,O=C(Nc1nc(CN2CCOCC2)cs1)c1cccc2nc(-c3ccccc3C(F)(F)F)oc12 [Compound 123],B (EC1-5 1-25 uM)
25,O=C(Nc1cccc(CN2CCOCC2)n1)c1cccc2nc(-c3ccccc3C(F)(F)F)oc12 [Compound 124],A (EC1-5<1.0 uM)
